This is an account of results in US8129366B2, “VLA-4 inhibitory drug” (Daiichi Sankyo Company, Limited, priority 2005, dated 2012).

The target of one series is T1, hα4 and β1 integrins (Homo sapiens, UniProt P05556+P13612).
T1 construct: expressed in transfected cells; host or cells: CHO cells
As to the kind of experiment: In vitro inhibition of binding between CHO cells expressing hα4 and β1 integrins and Eu3+-hVCAM-1 D1D7-IgG. As to conditions: for Ki: CHO cells expressing hα4 and β1 integrins, Eu3+-hVCAM-1 D1D7-IgG ligand, without HSA; for IC50: in the presence of 3% human serum albumin (HSA final concentration 3%). Summed up:
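Transfected CHO cells, cultured 2 days, were incubated with compound and Eu³⁺-hVCAM-1 D1D7-IgG (diluted to 2 nM) for 1 h at room temperature. Buffer was 25 mM HEPES pH 7.5 with 1 mM Ca²⁺, 1 mM Mg²⁺, 4 mM Mn²⁺ and 0.1% BSA, ±3% HSA final. Cells were washed at 4 °C and read by DELFIA time-resolved fluorescence; Ki was derived from IC50 using the Scatchard Kd.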

The nature of series [1]: Solubility test in first and second liquid of the Japanese Pharmacopoeia. As to conditions: Solubility.
Protocol: The solubilities of the substance under test in the first liquid (JP1, pH=1.2) of the Japanese Pharmacopoeia and the second liquid (JP2, pH=6.8) of the Japanese Pharmacopoeia, were evaluated.
[2] abbreviates: first liquid of the Japanese Pharmacopoeia (JP1), pH 1.2, simulated gastric fluid, First liquid of Japanese Pharmacopoeia (μg/mL), JP1, pH=1.2.
Setting [3] is: second liquid of the Japanese Pharmacopoeia (JP2), pH 6.8, aqueous buffer, Second liquid of Japanese Pharmacopoeia (μg/mL), JP2, pH=6.8.

In brackets after ≈: the same amount, converted by molar mass. Some results are limits rather than exact numbers.

T1 sequence (P13612 34-1032): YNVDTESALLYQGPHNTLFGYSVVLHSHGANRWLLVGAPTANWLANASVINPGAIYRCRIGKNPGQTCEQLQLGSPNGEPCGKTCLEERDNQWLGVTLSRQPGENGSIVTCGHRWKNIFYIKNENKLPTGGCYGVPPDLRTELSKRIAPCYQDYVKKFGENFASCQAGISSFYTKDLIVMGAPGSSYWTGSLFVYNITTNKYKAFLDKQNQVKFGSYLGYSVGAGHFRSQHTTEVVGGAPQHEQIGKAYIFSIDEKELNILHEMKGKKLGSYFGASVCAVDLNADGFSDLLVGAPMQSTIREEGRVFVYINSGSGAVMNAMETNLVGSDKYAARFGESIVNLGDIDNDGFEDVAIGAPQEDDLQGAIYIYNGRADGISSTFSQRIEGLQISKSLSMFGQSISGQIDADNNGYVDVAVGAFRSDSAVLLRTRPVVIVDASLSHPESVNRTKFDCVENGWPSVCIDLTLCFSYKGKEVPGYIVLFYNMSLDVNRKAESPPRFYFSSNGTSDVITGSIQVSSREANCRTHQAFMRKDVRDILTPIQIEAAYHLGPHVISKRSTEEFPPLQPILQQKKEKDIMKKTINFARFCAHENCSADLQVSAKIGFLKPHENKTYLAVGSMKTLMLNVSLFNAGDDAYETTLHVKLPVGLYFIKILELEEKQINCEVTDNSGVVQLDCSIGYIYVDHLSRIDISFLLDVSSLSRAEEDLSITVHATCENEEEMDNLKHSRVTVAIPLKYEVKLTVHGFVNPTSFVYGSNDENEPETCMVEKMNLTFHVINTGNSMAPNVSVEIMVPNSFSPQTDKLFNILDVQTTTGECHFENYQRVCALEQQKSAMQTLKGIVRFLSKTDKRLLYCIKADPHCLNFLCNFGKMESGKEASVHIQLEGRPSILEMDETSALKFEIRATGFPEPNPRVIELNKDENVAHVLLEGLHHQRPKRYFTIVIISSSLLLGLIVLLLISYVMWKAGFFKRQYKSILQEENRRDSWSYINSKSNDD
T1 sequence (P05556 21-798): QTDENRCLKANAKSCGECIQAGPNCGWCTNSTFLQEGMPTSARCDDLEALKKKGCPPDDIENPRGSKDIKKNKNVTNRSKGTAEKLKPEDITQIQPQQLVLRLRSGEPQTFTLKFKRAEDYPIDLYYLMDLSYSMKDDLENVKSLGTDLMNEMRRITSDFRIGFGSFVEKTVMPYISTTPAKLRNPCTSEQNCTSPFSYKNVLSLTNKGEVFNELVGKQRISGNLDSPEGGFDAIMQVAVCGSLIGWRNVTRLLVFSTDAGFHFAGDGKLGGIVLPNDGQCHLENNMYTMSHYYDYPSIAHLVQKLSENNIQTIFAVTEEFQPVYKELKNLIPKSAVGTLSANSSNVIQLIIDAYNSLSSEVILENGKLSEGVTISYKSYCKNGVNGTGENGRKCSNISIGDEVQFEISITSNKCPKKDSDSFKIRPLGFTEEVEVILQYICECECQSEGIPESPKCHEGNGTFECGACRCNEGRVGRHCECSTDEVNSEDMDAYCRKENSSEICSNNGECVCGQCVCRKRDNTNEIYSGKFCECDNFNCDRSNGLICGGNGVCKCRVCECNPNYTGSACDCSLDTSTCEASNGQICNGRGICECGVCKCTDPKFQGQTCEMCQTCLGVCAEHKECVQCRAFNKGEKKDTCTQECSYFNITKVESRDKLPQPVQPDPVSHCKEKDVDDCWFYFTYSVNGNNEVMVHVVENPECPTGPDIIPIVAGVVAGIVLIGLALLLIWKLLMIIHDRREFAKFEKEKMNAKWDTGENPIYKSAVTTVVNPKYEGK

On hα4 and β1 integrins, `C[C@@H]1CN([C@H]2C[C@@H](CO[C@H]3CC[C@H](C(=O)O)CC3)N(C(=O)Cc3ccc(NC(=O)c4nccc5ccccc45)c(Cl)c3)C2)C[C@H](C)O1` [Example 86, Trans-4-[1-[[3-chloro-4-[(isoquinolin-1-ylcarbonyl)amino]phenyl]acetyl]-(4S)-(cis-2,6-dimethylmorpholin-4-yl)-(2S)-pyrrolidinylmethoxy]cyclohexanecarboxylic acid] showed a Ki of 4.5 nM. The IC50 at hα4 and β1 integrins came out at 27 nM. Besides, the solubility in series [1] (setting [2]) is 1300 µg/mL (≈ 1960 µM); in series [1] (setting [3]), 1200 µg/mL (≈ 1810 µM).

For `CO[C@@H]1CCN([C@H]2C[C@@H](CO[C@H]3CC[C@H](C(=O)O)CC3)N(C(=O)Cc3cc(Cl)c(NC(=O)c4csc5ccccc45)cc3F)C2)C1` [Example 32, Trans-4-[1-[[4-[(benzo[b]thiophen-3-ylcarbonyl)amino]-5-chloro-2-fluorophenyl]acetyl]-(4S)-[(3R)-methoxypyrrolidin-1-yl]-(2S)-pyrrolidinylmethoxy]cyclohexanecarboxylic acid], on hα4 and β1 integrins, the Ki is 0.74 nM and the IC50 was 3.5 nM. Besides, in series [1] (setting [2]), the solubility was 1700 µg/mL (≈ 2530 µM). Also, in series [1] (setting [3]), the solubility came out at 1690 µg/mL (≈ 2510 µM).

On to `COCCC1CN([C@H]2C[C@@H](CO[C@H]3CC[C@H](C(=O)O)CC3)N(C(=O)Cc3cc(Cl)c(NC(=O)c4csc5ccccc45)cc3F)C2)C1` [Example 12, Trans-4-[1-[[4-[(benzo[b]thiophen-3-ylcarbonyl)amino]-5-chloro-2-fluorophenyl]acetyl]-(4S)-[3-(2-methoxyethyl)azetidin-1-yl]-(2S)-pyrrolidinylmethoxy]cyclohexanecarboxylic acid], for which, at hα4 and β1 integrins, the affinity, expressed as Ki, was 1 nM and the IC50 came out at 8.6 nM. For the same compound, the solubility in series [1] (setting [2]) was 1910 µg/mL (≈ 2780 µM). Moreover, the concentration in solution in series [1] (setting [3]) (solubility) came to 1690 µg/mL (≈ 2460 µM).

Take `C[C@@H]1CN([C@H]2C[C@@H](CO[C@H]3CC[C@H](C(=O)O)CC3)N(C(=O)Cc3ccc(NC(=O)c4nn(C)c5ccccc45)c(Cl)c3)C2)C[C@H](C)O1` [Example 88, Trans-4-[1-[[3-chloro-4-[(1-methyl-1H-indazol-3-ylcarbonyl)amino]phenyl]acetyl]-(4S)-(cis-2,6-dimethylmorpholin-4-yl)-(2S)-pyrrolidinylmethoxy]cyclohexanecarboxylic acid]: on hα4 and β1 integrins, the affinity, expressed as Ki, was 1.5 nM and the IC50 amounted to 9 nM. The compound also gave a solubility in series [1] (setting [2]) of 1100 µg/mL (≈ 1650 µM). For the same compound, the solubility in series [1] (setting [3]) was determined as 1300 µg/mL (≈ 1950 µM).

For the compound `Cn1cc(C(=O)Nc2cc(Cl)c(CC(=O)N3C[C@@H](N4CCCOCC4)C[C@H]3CO[C@H]3CC[C@H](C(=O)O)CC3)cc2Cl)c2ccccc21` [Example 165, Trans-4-[1-[[2,5-dichloro-4-[(1-methyl-1H-indol-3-ylcarbonyl)amino]phenyl]acetyl]-(4S)-([1,4]-oxazepan-4-yl)-(2S)-pyrrolidinylmethoxy]cyclohexanecarboxylic acid], at hα4 and β1 integrins, the affinity corresponds to a Ki of 8.2 nM and the IC50 came to 12 nM. The solubility in series [1] (setting [2]) was > 2000 µg/mL. Moreover, in series [1] (setting [3]), the solubility is > 2000 µg/mL.

With `Cn1cc(C(=O)Nc2cc(Cl)c(CC(=O)N3C[C@@H](N4CC5CC4CN5C4CC4)C[C@H]3CO[C@H]3CC[C@H](C(=O)O)CC3)cc2Cl)c2ccccc21` (stereo partly drawn) [Example 164, Trans-4-[1-[[2,5-dichloro-4-[(1-methyl-1H-indol-3-ylcarbonyl)amino]phenyl]acetyl]-(4S)-[(1S,4S)-2-cyclopropyl-2,5-diazabicyclo[2.2.1]heptan-5-yl]-(2S)-pyrrolidinylmethoxy]cyclohexanecarboxylic acid], on hα4 and β1 integrins, the Ki is 13 nM and the IC50 was determined as 71 nM. Also, the concentration in solution in series [1] (setting [2]) (solubility) came to 1000 µg/mL (≈ 1380 µM). Besides, in series [1] (setting [3]), the solubility turned out to be 1000 µg/mL (≈ 1380 µM).

Regarding `CO[C@H]1CN([C@H]2C[C@@H](CO[C@H]3CC[C@H](C(=O)O)CC3)N(C(=O)Cc3cc(Cl)c(NC(=O)c4coc5ccccc45)cc3Cl)C2)C[C@@H]1OC` [Example 54, Trans-4-[1-[[4-[(benzo[b]furan-3-ylcarbonyl)amino]-2,5-dichlorophenyl]acetyl]-(4S)-[(3S,4S)-dimethoxypyrrolidin-1-yl]-(2S)-pyrrolidinylmethoxy]cyclohexanecarboxylic acid], at hα4 and β1 integrins, the Ki was 3.4 nM and the IC50 was found to be 25 nM. This compound showed a solubility in series [1] (setting [2]) of 1000 µg/mL (≈ 1420 µM). The compound further yielded a solubility in series [1] (setting [3]) of 1000 µg/mL (≈ 1420 µM).

For `O=C(Nc1cc(F)c(CC(=O)N2C[C@@H](N3C[C@@H]4OCO[C@@H]4C3)C[C@H]2CO[C@H]2CC[C@H](C(=O)O)CC2)cc1Cl)c1coc2ccccc12` [Example 74, Trans-4-[1-[[4-[(benzo[b]furan-3-ylcarbonyl)amino]-5-chloro-2-fluorophenyl]acetyl]-(4S)-[(3a,6a-cis)-tetrahydro[1,3]dioxolo[4,5-c]pyrrol-5-yl]-(2S)-pyrrolidinylmethoxy]cyclohexanecarboxylic acid], the Ki at hα4 and β1 integrins is 1.5 nM. Further, on hα4 and β1 integrins, the IC50 came to 8.8 nM. In addition, the solubility in series [1] (setting [2]) was 1200 µg/mL (≈ 1790 µM); in series [1] (setting [3]) it was 1300 µg/mL (≈ 1940 µM).

As for `CO[C@H]1CCN([C@H]2C[C@@H](CO[C@H]3CC[C@H](C(=O)O)CC3)N(C(=O)Cc3cc(Cl)c(NC(=O)c4cn(C)c5ccccc45)cc3Cl)C2)C1` [Example 35, Trans-4-[1-[[2,5-dichloro-4-[(1-methyl-1H-indol-3-ylcarbonyl)amino]phenyl]acetyl]-(4S)-[(3S)-methoxypyrrolidin-1-yl]-(2S)-pyrrolidinylmethoxy]cyclohexanecarboxylic acid], at hα4 and β1 integrins, the Ki is 5.9 nM and the IC50 turned out to be 20 nM. Also, the solubility in series [1] (setting [2]) is > 2000 µg/mL. Moreover, the solubility in series [1] (setting [3]) is > 2000 µg/mL.

On to `CO[C@H]1CN([C@H]2C[C@@H](CO[C@H]3CC[C@H](C(=O)O)CC3)N(C(=O)Cc3cc(Cl)c(NC(=O)c4csc5ccccc45)cc3F)C2)C[C@@H]1OC` [Example 52, Trans-4-[1-[[4-[(benzo[b]thiophen-3-ylcarbonyl)amino]-5-chloro-2-fluorophenyl]acetyl]-(4S)-[(3S,4S)-dimethoxypyrrolidin-1-yl]-(2S)-pyrrolidinylmethoxy]cyclohexanecarboxylic acid], for which the affinity on hα4 and β1 integrins, expressed as Ki, was 1.2 nM. In addition, the IC50 on hα4 and β1 integrins is 8.4 nM. Further, the solubility in series [1] (setting [2]) and in series [1] (setting [3]) was 1000 µg/mL (≈ 1420 µM) each time.

Compound `O=C(Nc1cc(Cl)c(CC(=O)N2C[C@@H](N3C[C@@H]4OCO[C@@H]4C3)C[C@H]2CO[C@H]2CC[C@H](C(=O)O)CC2)cc1Cl)c1coc2ccccc12` [Example 73, Trans-4-[1-[[4-[(benzo[b]furan-3-ylcarbonyl)amino]-2,5-dichlorophenyl]acetyl]-(4S)-[(3a,6a-cis)-tetrahydro[1,3]dioxolo[4,5-c]pyrrol-5-yl]-(2S)-pyrrolidinylmethoxy]cyclohexanecarboxylic acid] yielded a Ki on hα4 and β1 integrins of 1.9 nM. In addition, the IC50 on hα4 and β1 integrins was 22 nM. Besides, the solubility in series [1] (setting [2]) and in series [1] (setting [3]) was 1000 µg/mL (≈ 1460 µM) throughout.
